Measured values taken from patent publication US20090081170A1, “Cardiac progenitor cells” (priority 2007, published 2009).

Tests used:
Assay type in all cases: cell-based, mouse
[1] = test system: adult heart explants (adult EPDCs); assay: Adult epicardial explant culture: EPDC outgrowth and differentiation
Protocol: A simple protocol for the outgrowth and differentiation of vasculogenic precursor cells (endothelial and vascular smooth muscle cells) from adult heart using Thymosin β4 to stimulate epicardial cell migration is described below.
• 1. Coat 6-well plates with gelatin: pipette 2 ml 0.1% gelatin solution, allow to stand for 15 minutes and aspirate. Optionally, place coverslips into wells, prior to gelatin coating. • 2. Cull adult mouse by cervical dislocation. • 3. Using sterile forceps and scissors make a lateral incision in the centre of the abdomen and tear back the fur to expose the rib cage. • 4. Carefully cut upwards through the sternum and along the diaphragm, taking care not to cut into the heart. Pull back the ribs to reveal the heart. • 5. Remove the heart using forceps and dissect away the atria and major vessels, to leave right and left ventricles. • 6. Place tissue in a 60 mm tissue culture dish (non gelatin coated) containing 2 ml DPBS. Cut into quarters and allow blood to rinse from the tissue. Carefully aspirate away DPBS. Using a sterile scalpel, cut the heart into pieces of approximately 1 mm^3. Reproducible EPDC outgrowth strongly depends upon the size of the heart pieces (optimally 1 mm^3). Larger pieces will not adhere to permit sufficient migration while smaller pieces tend to dissociate completely and cardiomyocyte death precedes adherence and EPDC outgrowth. • 7. Divide heart pieces into 4 equal portions (1 adult heart is typically divided between 4 wells for optimal EPDC outgrowth). • 8. Pipette 2 ml of EPDC culture medium, supplemented with 100 ng/ml Tβ4, into each well to be used. • 9. Place 1 portion of heart tissue into the centre of each well and ensure that all pieces are submerged. • 10. Gently transfer the plate to a humidified 5% CO2 37° C. incubator. Maintain cultures with minimum disturbance to allow explants to adhere. No feeding is required for the first 72 hours. Minimal disturbance is absolutely essential for EPDC outgrowth. Explants adhere only tenuously in the first instance and disturbance in the first few days of culture will prevent adhesion or lead to detachment. Plates should be transferred extremely cautiously between incubator and microscope or culture hood. After sufficient EPDCs have emerged, explants attach more firmly but care is still required as detachment may easily occur. • 11. After 72 hours in culture, carefully transfer plate to culture hood, wash explants gently with DPBS and add 2 ml fresh EPDC medium containing 100 ng/ml Tβ4. Leave for a further 24 hours before assessment of cellular phenotype.
• 1. Culture adult heart explants as described above. • 2. After 72 hours of culture, fix cells with 4% PFA for 10 minutes at room temperature. • 3. Wash cells twice with PBS. • 4. Permeabilise cells with 0.5% Triton X-100 in PBS for 5 minutes at room temperature. • 5. Wash cells twice with PBS. • 6. Block non-specific binding by incubating cells in BLOCK (1% BSA/10% sheep serum in PBS) for 1 hour at room temperature. • 7. Incubate cells with an appropriate dilution of primary antibody (epicardin, 1:100; SMalphaA, 1:700; Flk1, 1:100), or Procollagen type I, 1:100), in BLOCK. • 8. Wash cells 3 times using BLOCK. • 9. Incubate cells with the appropriate secondary antibody (epicardin: Cy3-conjugated anti-rabbit; SMalphaA: FITC-conjugated anti-mouse, 1:30; Procollagen type I: Alexa 488-conjugated anti-goat, 1:200; Flk1: Alexa 594-conjugated anti-rat, 1:200) diluted in BLOCK. • 10. Wash cells twice in PBS. • 11. Optionally, to stain nuclei, incubate with 5 ug/ml Hoechst in PBS for 5 minutes at room temperature. • 12. Wash cells twice in PBS. • 13. Mount coverslips onto microscope slides using 50% glycerol in PBS as mountant and visualize using a fluorescence microscope. […]

Akt (P-Ser 473) = assay: Tβ4 treatment of C2C12 myoblast cells, Akt phosphorylation; conditions: C2C12 myoblasts, Tβ4 10 ng/ml
Protocol: Western blotting was performed using standard methods (Tris-Tricine 4-20% gradient SDS-PAGE for blotting of Tβ4 or Tβ10 peptides and Tris-glycine SDS-PAGE for all other proteins) using antibodies against Tβ4 (abcam), Tβ10 (Biodesign International), Tie-2 (Santa Cruz), SMαA (Sigma), GAPDH (Chemicon), Caspase-8 (Santa Cruz), Cleaved caspase-3, total Akt and Phospho-Akt (both Cell Signalling Technology).
C2C12 cells were cultured in DMEM containing 10% FBS. Tβ4 (10 ng/ml, mmundiagnostik AG) was added and cells harvested over a time course to assess the degree of phosphorylation (activation) of Akt.

[2] = test system: epicardial explants from E10.5 hearts; assay: Embryonic epicardial explant cultures; conditions: E10.5 explants
Description: In order to support our in vivo phenotype analyses and assess a direct effect of Tβ4 on developing epicardium, we established epicardial explant cultures from wild-type hearts13. We initially derived epicardial explants from stages E10.5 to E16.5 and postnatal day 1 (P1) neonates, treated with either, Tβ4, with VEGF and FGF7 [59], or a combination of Tβ4 and growth factors. Explants from E10.5 hearts, coincident with the formation of the epicardium, produced extensive outgrowths that differentiated into SMαA- and Tie2-positive cells (FIG. 3 b).

Q: Which “percentage incidence of myocardial progenitors (cells positive for Isl-1/Nkx2.5/Gata4)” value ([1]; Gata5-EYFP lineage trace explant cultures, mean +/− SEM, n=12 explants) does the source give for Thymosin β4 [Tβ4] here?
A: 5.3+/−1.9%

Q: What about the “EPDCs positive for Tbx18 and Raldh2” value ([1]; adult epicardial explants, immunofluorescence) of the same substance?
A: significant number of proliferative, migrating EPDCs positive for Tbx18 and Raldh2

Q: What about the “differentiation of emerging epicardin-positive cells” value ([1]; adult explants, immunofluorescence) of the same substance?
A: differentiated with migration into procollagen type I—, SMαA- and Flk1 (VEGF receptor)-positive cells

Q: What about the “EPDC outgrowth from adult heart explants” value ([1]; adult mouse heart explants, 8-12 weeks, vs untreated explants) of the same substance?
A: stimulated extensive outgrowth of cells

Q: What about the “time to Akt activation (P-Ser 473)” value (Akt (P-Ser 473)) of the same substance?
A: ≤ 10 min

Q: What about the “numbers of SMαA- and Tie2-positive cells” value [2] of the same substance?
A: significantly increased
